Test results published in patent publication US20130236416A1, “SURFACE MODIFIED COLLOIDAL PARTICLES” (CLEMSON UNIVERSITY, priority 2012, published 2013).
Where “and” joins values, the source holds several entries; their conditions need not be identical. Identical values can stand only once. Like-named read-outs stand apart in the source and are kept apart here.

Key:
[1] = Relative fluorescence quantum yield versus reference dye HITCI in methanol; format: physicochemical
Protocol: Absorption spectra were taken using a Perkin-Elmer Lambda 900 UV/VIS/NIR spectrophotometer. Photoluminescence (PL) spectra were collected using a Thermo Oriel xenon arc lamp (Thermo Oriel 66 902) mated with a Thermo Oriel Cornerstone 7 400 1/8m monochromator (Thermo Oriel 7400) and a Horiba Jobin-Yvon MicroHR spectrometer coupled to a Synapse CCD detector. Quantum yields (φ) of the dyes and modified particles were determined relative to the reference dye 1,10,3,3,30,30-hexamethylindotricarbocyanine iodide (HITCI) in methanol, which has a fluorescence quantum yield of φref=0.12, [51,20] employing established procedures.

[2] = cited from earlier work
P. resinovorans CA10 = experiment: Proliferation of P. resinovorans CA10 on carbazole-based media; format: cell-based, Pseudomonas resinovorans CA10; conditions: 96 hour incubation
Protocol: Control growth performed with glucose medium (Δ).
The bioavailability of the hydrophobic metabolites is also critical to understanding metabolic enzymes that bind to them[40]. […] FIG. 3 presents the proliferation of P. resinovorans CA10 with both 9H-carbazole and PA/AC particle based media during a 96 hour incubation.

CARDO complex = target: T1, CARDO complex (Metapseudomonas resinovorans, UniProt Q8G8B6); experiment: Temperature dependence of 9H-carbazole conversion by purified CARDO complex; format: biochemical, Pseudomonas resinovorans CA10; conditions: 5° C.
T1 construct: (HIS)6 (C); made in house; host or cells: Escherichia coli BL21(DE3) Rosetta
T1 sequence (Q8G8B6 whole entry, one chain of several): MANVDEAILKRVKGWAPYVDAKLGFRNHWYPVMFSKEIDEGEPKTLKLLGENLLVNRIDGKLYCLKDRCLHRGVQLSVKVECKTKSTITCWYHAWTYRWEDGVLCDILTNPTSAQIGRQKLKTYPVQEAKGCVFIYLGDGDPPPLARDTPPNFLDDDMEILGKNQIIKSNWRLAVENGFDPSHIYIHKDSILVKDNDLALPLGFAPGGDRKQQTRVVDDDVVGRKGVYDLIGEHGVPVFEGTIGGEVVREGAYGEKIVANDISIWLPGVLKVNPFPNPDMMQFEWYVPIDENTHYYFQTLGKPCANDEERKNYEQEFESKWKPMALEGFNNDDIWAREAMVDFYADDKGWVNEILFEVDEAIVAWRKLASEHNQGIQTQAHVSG
Protocol: Purified CARDO complex activity was monitored using a modified enzymatic assay previously described [H. Nojiri, et al. Structure of the terminal oxygenase component of angular dioxygenase, carbazole 1,9a-dioxygenase. Journal of Molecular Biology, 351(2):355-370, 2005.]. The purified enzymes CARDO-F, CARDO-O and CARDO-R were incubated in 20 μL Buffer D (25 mM Tris-HCl pH 7.5 and 1 mM NADH) containing 1 mM carbazole dissolved in DMSO at varying temperatures from 30° C. to 5° C. An aliquot was removed from the reaction at the indicated times and the absorbance of the reaction was determined with a NanoDrop spectrophotometer (Thermo Scientific) at 295 nm.

## CC1(C)C(/C=C/C=C/C=C/C=C2/N(CCCN=[N+]=[N-])c3ccc4ccccc4c3C2(C)C)=[N+](CCCCS(=O)(=O)[O-])c2ccc3ccccc3c21 [azICG, 4-(2-(1E,3E,5E,7E)-7-[3-(3-Azidopropyl)-1,1-Dimethyl-1,3-Dihydro-2H-Benzo[e]Indol-2-Ylidene]-1,3,5-Heptatrienyl-1,1-Dimethyl-1H-Benzo[e]Indolium-3-yl)-1-Butanesulfonate]
[1]
  relative fluorescence quantum yield φ: 0.044±0.004 and 0.044

## CC1(C)C(/C=C/C=C/C=C/C=C2\N(CCCCS(=O)(=O)O)c3ccc4ccccc4c3C2(C)C)=[N+](CCCCS(=O)(=O)[O-])c2ccc3ccccc3c21 [ICG, Indocyanine green]
[2]; free ICG in an aqueous albumin solution
  yield of triplet formation through S1-T1 intersystem-crossing: 11%
[2]; free ICG in water
  yield of triplet formation through S1-T1 intersystem-crossing: 14%
[2]; water, ICG concentration ca. 2.7×10^−3 mol·dm^−3
  fluorescence quantum yield of free ICG in water: ca. 4×10^−5
[1]
  relative fluorescence quantum yield φ: 0.036±0.002

## c1ccc2c(c1)[nH]c1ccccc12 [9H-carbazole]
P. resinovorans CA10
  growth of P. resinovorans CA10 on the substrate-based medium: consistent growth
CARDO complex
  conversion of carbazole by purified CARDO complex: significantly retarded

## CN1C(=CC=CC=CC=CC2=[N+](C)c3ccccc3C2(C)C)C(C)(C)c2ccccc21.[I-] [HITCI, 1,10,3,3,30,30-hexamethylindotricarbocyanine iodide]
[2]; reference dye in methanol
  fluorescence quantum yield φref: 0.12
